# How the values were obtained:
# [1] = Langmuir monolayer penetration assay at constant area; assay type: physicochemical; settings: POPC/DOPE/CL
# Description: (§1) For the biophysical characterization of membrane active protein fragments, we have used Langmuir monolayers as in vitro model of lipid membranes. These supramolecular lipid films formed at the air-water interface are attractive membrane models, widely used for studying peptide-lipid interactions, [56], [57]. We have investigated the binding of peptides derived from the central helices of BAX, BCL-xL and BID at physiological pH with model phospholipid monolayers of a composition that imitates mitochondrial membranes. For this purpose we selected fragments encompassing the sequences corresponding to the first or second α-helices of the core hairpins of BAX, BCL-xL and BID, as defined in the water-soluble protein structures, [17], [19]. Because the structures of those proteins in a membrane environment is currently unavailable, for the case of the first hairpin helix of BAX and BCL-xL (α5) we analyzed both a short version (labeled “S”), including only the reported α-helical residues, and a long version (labeled “L”) that extends a few residues beyond the α-helix stretch at both ends. Divergence of the BID sequence precluded unambiguous alignment with the other two proteins and a similar peptide design. Peptides corresponding to the BH3 domain of BAX, BCL-xL and BID were also included in the study. The sequence and some general properties of the peptides analyzed in this study are described in Table 1 and Figure 1). Lipid mixtures of POPC/DOPE (2∶1) and POPC/DOPE/CL (1∶1∶1) were chosen to mimic the MOM and the contact sites between inner and outer mitochondrial membrane (MIM/MOM), respectively. Penetration assays were carried out at constant area by spreading the lipids at the air-buffer interface, compressing the film at πi = […] and then injecting the peptides into the subphase at a concentration of 0.2 µM (see Material and Methods). Subsequent peptide binding results typically in an increase of surface pressure. Thus, the peptide-monolayer interaction can be characterized by measurable kinetic properties, such as the initial velocity of surface pressure increase (Vi), which informs about the affinity of the peptide for the lipid-water interface, and the final increase of surface pressure (πmax), which can be related to the insertion ability of the peptide into the monolayer.
# (§2) Monolayer experiments were performed on a computer-controlled Langmuir film balance (KSV 2000, three multi-compartment system, KSV Instrument Ltd., Finland) working in a symmetrical compression mode and enclosed in an opaque cabinet. The rectangular trough (V = 85 mL ±1 mL, S = 119.25 cm^2) was made of Teflon and the mobile barriers were made in Delrin. The surface pressure, π defined as γ0 – γ, where γ0 is the surface tension of the pure aqueous subphase and γ the surface tension exerted by phospholipids at the subphase surface, was measured by the Wilhelmy's method using a platinum plate with an accuracy of ±0.05 mN/m. The trough was filled with Hepes buffer (pH 7.4), used as subphase and thermostated with a water circulating bath (Lauda E100, LAUDA France, SARL). In all experiments, the subphase temperature was maintained at a constant value of 22.5±0.5°C.
# Phospholipid monolayers were formed by deposition of 14 µl of spreading solutions at a clean air/buffer interface by means of a micropipette to reach a final amount of 14 nmol of phospholipids. After complete evaporation of the solvent (∼15 min), the monolayer was slowly compressed up to a defined lateral pressure (initial surface pressure πi) at a rate of 0.045 nm^2 molecule^−1 min^−1. The value of πi = 5 mN/m was chosen because it lies between the surface pressure set-off and surface pressures (e.g. 30 mN/m, which corresponds to a tightly packed film) where many peptides of the study will not insert. […]
# [2] = Langmuir monolayer penetration assay, lipid mixture not singled out (Figure 5); assay type: physicochemical; settings: Figure 5A; πi 5 mN/m, peptide 0.2 µM, Hepes pH 7.4, duplicate
# Description: as §1
# Figure 5 Changes in surface pressure after peptide injection. Peptides were injected underneath POPC/DOPE or POPC/DOPE/CL monolayers at constant area. A. Final increase of surface pressure πmax (mN/m) obtained for the different peptides. The dashed line denotes the threshold (Δπ = 4.8 mN/m) for significant surface pressure variation as determined using BAX-α5S without lipids (see text). B. Initial velocity of surface pressure increase (Vi = Δπ/s).
# as §2
# Phospholipid monolayers were formed by deposition of 14 µl of spreading solutions at a clean air/buffer interface by means of a micropipette to reach a final amount of 14 nmol of phospholipids. […]
# [3] = tested on: mitochondria isolated from HEK293T cells; test: Cytochrome c release assay; assay type: biochemical; settings: 10 µM peptide, 5 min incubation, 30°C, Western blot of supernatant and pellet
# Description: Thus, we tested the ability of the different peptides to induce the release of mitochondrial proteins by incubating them with mitochondria isolated from HEK293T cells, and subsequently assaying the supernatant and pelleted fractions with antibodies for cytochrome c and mitoHSP70. […] On the other hand, incubation of mitochondria with 10 µM BID-α6 induced a slower release, with depletion of the mitochondrial pool of cytochrome c occurring only after 1 hour incubation.
# Figure 7 Cytochrome c release assays. Peptides were incubated with isolated mitochondria for the indicated times (min) and the release of cytochrome c was monitored by Western blotting (IB). MitoHSP70 was used as an equal-loading control for the pellet fraction. Control lanes indicate that in the preparation the MOM is intact and cytochrome c is retained within the intermembrane space. A. Cytochrome c release assays for the first (BAX-α5S, BCLX-α5S, BID-α6) and second helices (BAX-α6, BCLX-α6, BID-α7) of the ‘pore domain’ of BAX, BCL-xL and BID using mitochondria isolated from HEK293T cells. B. Cytochrome c release assays for BAX-α5M and BAX-α5MS using mitochondria isolated from MEF and MEK BAX/BAK -/- double knock-out cells (MEF DKO). C. Cytochrome c release assays for the BH3 peptides.
# Crude mitochondria were prepared from HEK 293T, mouse embryo fibroblast (MEF) or BAX/BAK double knockout MEF cells (MEF-DKO). In brief, cells were mechanically broken using a 2 ml glass/glass Dounce homogenizer (Kontes) (30 strokes). Homogenates were cleared at 1500 g and mitochondria were spun down at 10 000 g. For cytochrome c release assays, 30 µg of crude mitochondria were resuspended at 1 mg/ml in KCl buffer supplemented with succinate (5 mM) and EGTA (0.5 mM). Peptides (2.5, 10 or 25 µM) were added to the samples and incubations were carried out at 30°C under agitation (300 rpm). At the indicated time points, samples were centrifuged (5 min, 10 000 g, 4°C); supernatants and pellets were recovered and analyzed by immunoblotting for Cytochrome c and mitoHsp70.
sequence,measurement,setting,value
"WGRVVALFYFASKLVLKALSTK [BAX-α5S, short peptide of the first helix (α5) of the central hairpin of BAX]",surface pressure increase (Δπ) with lipid monolayer,"[1]; initial surface pressure 5 mN/m, peptide 0.2 µM in subphase, Hepes pH 7.4, 22.5°C, constant area",32.1 mN/m
same,πmax (plateau surface pressure after peptide injection),"[1]; πi = 5 mN/m, peptide injected underneath monolayer, compression-decompression experiment",32.1 mN/m
same,exclusion pressure (πex),[1]; extrapolation of linear Δπ versus πi plot to Δπ = 0,33 mN/m
same,"final increase of surface pressure πmax (insertion), in words",[2],highest increases in surface pressure
same,"cytochrome c release, in words",[3],complete depletion of all mitochondrial cytochrome c

# — publication PMC2816717, “Active Fragments from Pro- and Antiapoptotic BCL-2 Proteins Have Distinct Membrane Behavior Reflecting Their Functional Divergence” (PLoS ONE, 2010)
